According to patent EP0067666A1, “Salts of antimicrobial naphthyridine and quinoline compounds and their production” (priority 1981, dated 1982):
Marks after values point to notes of the source that are not given here.

Legend:
[1] = Solubility screening procedure (concentration and pH of filtrate); type: physicochemical; conditions: for Conc. of CPD A: compound A + equimolar acid; for Conc. of CPD A / Conc. of CPD B: amino acid or base in deionized water, room temperature, filtrate, UV assay; for pH of Solution: pH of the filtrate; for Conc. of CPD B: compound B + equimolar acid
Procedure: (§1) The amount of Compound A or Compound B calculated for selected concentrations was weighed into volumetric flasks. Equimolar quantities of combining acid, amino acid, or base were added either as solutions or in dry form. Deionized water was added to bring the volume to that desired for the preselected concentrations.. All flasks were sonicated for 15 minutes, allowed to stand at room temperature for 30 minutes, then filtered through a fine frit sintered glass funnel. After the pH of the filtrate was taken, suitable dilutions were made into 0.1N HCl for ultraviolet spectrophotometric assay of concentration. Ten fold dilutions of the original filtrates were made into standard I.V. solutions.

[2] = 10x dilution of soluble forms with standard IV solutions (pH, precipitate); type: physicochemical; conditions: for Solution 1 ppt 24 hr / Solution 3 ppt 24 hr / Solution 2 ppt 24 hr / Solution 4 ppt 24 hr: precipitate at 24 hr; for Concen. of Cpd A: undiluted solution used for the 10x dilutions
Procedure: as §1

[3] = Cpd A salt solution diluted 10x with 0.9% NaCl
[4] = Cpd A salt solution diluted 10x with 5% Dextrose
[5] = Cpd A salt solution diluted 10x with 5% Dextrose + 0.9% NaCl
[6] = Cpd A salt solution diluted 10x with Lactated Ringer's Solution
[7] = concentrated Cpd B solution (155-221 mg/ml) diluted 10x with 0.9% NaCl

SMILES | Conc. of CPD A [1] [µg/mL] | pH of Solution ([1]; CPD A solutions) | Conc. of CPD B [1] [µg/mL] | pH of Solution ([1]; CPD B solutions) | further results
CCn1cc(C(=O)O)c(=O)c2cc(F)c(N3CCNCC3)cc21 [A Acetic] | 235000 | 5.3 |  |  | Solution 1 pH dil [2, 3]: 5.4; Solution 1 ppt 24 hr [2, 3]: no; Solution 2 pH dil [2, 4]: 5.0; Solution 3 pH dil [2, 5]: 5.3; Solution 3 ppt 24 hr [2, 5]: no; Solution 2 ppt 24 hr [2, 4]: no; Solution 4 pH dil [2, 6]: 5.3; Solution 4 ppt 24 hr [2, 6]: no; pH of Solut. ([2]; undiluted Cpd A solution): 5.3; Concen. of Cpd A [2]: 235000 µg/mL
CCn1cc(C(=O)O)c(=O)c2cc(F)c(N3CCNCC3)cc21 [A Choline] | 53500 | 10.34 |  |  | 
CCn1cc(C(=O)O)c(=O)c2cc(F)c(N3CCNCC3)cc21 [A Citric] | 1500 | 3.32 |  |  | 
CCn1cc(C(=O)O)c(=O)c2cc(F)c(N3CCNCC3)cc21 [A D,L-Alanine] | 900 | 6.44 |  |  | 
CCn1cc(C(=O)O)c(=O)c2cc(F)c(N3CCNCC3)cc21 [A Diethanolamine] | 7500 | 9.68 |  |  | 
CCn1cc(C(=O)O)c(=O)c2cc(F)c(N3CCNCC3)cc21 [A Galacturonic] | 166000 | 5.44 |  |  | 
CCn1cc(C(=O)O)c(=O)c2cc(F)c(N3CCNCC3)cc21 [A Gluconic] | 182000 | 4.3 |  |  | 
CCn1cc(C(=O)O)c(=O)c2cc(F)c(N3CCNCC3)cc21 [A Hydrochloric] | 201000 | 1.52^a |  |  | Solution 1 pH dil [2, 3]: 2.7; Solution 1 ppt 24 hr [2, 3]: no; Solution 2 pH dil [2, 4]: 2.8; Solution 3 pH dil [2, 5]: 2.7; Solution 3 ppt 24 hr [2, 5]: no; Solution 2 ppt 24 hr [2, 4]: no; Solution 4 pH dil [2, 6]: 4.6; Solution 4 ppt 24 hr [2, 6]: no; pH of Solut. ([2]; undiluted Cpd A solution): 1.52; Concen. of Cpd A [2]: 201000 µg/mL
CCn1cc(C(=O)O)c(=O)c2cc(F)c(N3CCNCC3)cc21 [A Isethionic] | 175000 | 1.35 |  |  | Solution 1 pH dil [2, 3]: 2.18; Solution 1 ppt 24 hr [2, 3]: no; Solution 2 pH dil [2, 4]: 2.27; Solution 3 pH dil [2, 5]: 2.08; Solution 3 ppt 24 hr [2, 5]: no; Solution 2 ppt 24 hr [2, 4]: no; Solution 4 pH dil [2, 6]: 3.70; Solution 4 ppt 24 hr [2, 6]: no; pH of Solut. ([2]; undiluted Cpd A solution): 1.35; Concen. of Cpd A [2]: 175000 µg/mL
CCn1cc(C(=O)O)c(=O)c2cc(F)c(N3CCNCC3)cc21 [A L-Arginine] | 11100 | 9.8 |  |  | 
CCn1cc(C(=O)O)c(=O)c2cc(F)c(N3CCNCC3)cc21 [A L-Cysteic] | 166000 | 2.92 |  |  | Solution 1 pH dil [2, 3]: 3.17; Solution 1 ppt 24 hr [2, 3]: no; Solution 2 pH dil [2, 4]: 2.82; Solution 3 pH dil [2, 5]: 2.68; Solution 3 ppt 24 hr [2, 5]: no; Solution 2 ppt 24 hr [2, 4]: no; Solution 4 pH dil [2, 6]: 3.70; Solution 4 ppt 24 hr [2, 6]: slight; pH of Solut. ([2]; undiluted Cpd A solution): 2.92; Concen. of Cpd A [2]: 166000 µg/mL
CCn1cc(C(=O)O)c(=O)c2cc(F)c(N3CCNCC3)cc21 [A L-Histidine] | 700 | 7.4 |  |  | 
CCn1cc(C(=O)O)c(=O)c2cc(F)c(N3CCNCC3)cc21 [A L-Leucine] | 900 | 6.2 |  |  | 
CCn1cc(C(=O)O)c(=O)c2cc(F)c(N3CCNCC3)cc21 [A L-Lysine] | 4200 | 9.5 |  |  | 
CCn1cc(C(=O)O)c(=O)c2cc(F)c(N3CCNCC3)cc21 [A L-Proline] | 900 | 6.28 |  |  | 
CCn1cc(C(=O)O)c(=O)c2cc(F)c(N3CCNCC3)cc21 [A Lactobionic] | 46500 | 4.65 |  |  | 
CCn1cc(C(=O)O)c(=O)c2cc(F)c(N3CCNCC3)cc21 [A Maleic] | 45100 | 2.79 |  |  | 
CCn1cc(C(=O)O)c(=O)c2cc(F)c(N3CCNCC3)cc21 [A Methane Sulphonic] | 175000 | 1.33 |  |  | Solution 1 pH dil [2, 3]: 5.4; Solution 1 ppt 24 hr [2, 3]: no; Solution 2 pH dil [2, 4]: 2.7; Solution 3 pH dil [2, 5]: 2.5; Solution 3 ppt 24 hr [2, 5]: no; Solution 2 ppt 24 hr [2, 4]: no; Solution 4 pH dil [2, 6]: 4.5; Solution 4 ppt 24 hr [2, 6]: no; pH of Solut. ([2]; undiluted Cpd A solution): 1.5; Concen. of Cpd A [2]: 173000 µg/mL
CCn1cc(C(=O)O)c(=O)c2cc(F)c(N3CCNCC3)cc21 [A Oxalic] | 19800 | 2.14 |  |  | 

SMILES | Conc. of CPD A [1] [µg/mL] | pH of Solution ([1]; CPD A solutions) | Conc. of CPD B [1] [µg/mL] | pH of Solution ([1]; CPD B solutions) | further results
CCn1cc(C(=O)O)c(=O)c2cc(F)c(N3CCNCC3)cc21 [A Sodium Hydroxide] | 131000 | 10.0 |  |  | 
CCn1cc(C(=O)O)c(=O)c2cc(F)c(N3CCNCC3)cc21 [A Succinic] | 128000 | 4.25 |  |  | 
CCn1cc(C(=O)O)c(=O)c2cc(F)c(N3CCNCC3)cc21 [A Tartaric] | 3500 | 3.02 |  |  | 
CCn1cc(C(=O)O)c(=O)c2cc(F)c(N3CCNCC3)nc21 [B Acetic] |  |  | 195000 | 4.97^c | Solution 2 pH dil ([2]; concentrated Cpd B solution (154-221 mg/ml) diluted 10x with 5% Dextrose): 5.6; Solution 3 pH dil ([2]; concentrated Cpd B solution (154-221 mg/ml) diluted 10x with 5% Dextrose + 0.9% NaCl): 5.4; Solution 4 pH dil ([2]; concentrated Cpd B solution (154-221 mg/ml) diluted 10x with Lactated Ringer's Solution): 5.3; Solution 1 pH dil [2, 7]: 5.2; Solution 1 ppt 4 hr ([2]; concentrated Cpd B solution (155-221 mg/ml) diluted 10x with 0.9% NaCl, precipitate at 4 hr): yes; Solution 1 ppt 24 hr [2, 7]: yes; Solution 3 ppt 4 hr ([2]; concentrated Cpd B solution diluted 10x with 5% Dextrose + 0.9% NaCl, precipitate at 4 hr): yes; Solution 3 ppt 24 hr ([2]; concentrated Cpd B solution diluted 10x with 5% Dextrose + 0.9% NaCl): yes; Solution 2 ppt 4 hr ([2]; concentrated Cpd B solution diluted 10x with 5% Dextrose, precipitate at 4 hr): slight; Solution 2 ppt 24 hr ([2]; concentrated Cpd B solution diluted 10x with 5% Dextrose): slight; Solution 4 ppt 4 hr ([2]; concentrated Cpd B solution diluted 10x with Lactated Ringer's Solution, precipitate at 4 hr): slight; Solution 4 ppt 24 hr ([2]; concentrated Cpd B solution diluted 10x with Lactated Ringer's Solution): yes; pH of Solut. ([2]; undiluted concentrated Cpd B solution used for the Solution 1 dilution): 4.97; Concen. of Cpd B ([2]; undiluted concentrated solution (at least 155 mg/ml) used for the Solution 1 dilution (for most salts for all four solutions)): 195000 µg/mL
CCn1cc(C(=O)O)c(=O)c2cc(F)c(N3CCNCC3)nc21 [B Choline] |  |  | 38200 | 9.8 | 
CCn1cc(C(=O)O)c(=O)c2cc(F)c(N3CCNCC3)nc21 [B Citric] |  |  | 1300 | 3.14 | 
CCn1cc(C(=O)O)c(=O)c2cc(F)c(N3CCNCC3)nc21 [B Diethanolamine] |  |  | 4300 | 9.7 | 
CCn1cc(C(=O)O)c(=O)c2cc(F)c(N3CCNCC3)nc21 [B Gluconic] |  |  | 168000 | 4.6 | 
CCn1cc(C(=O)O)c(=O)c2cc(F)c(N3CCNCC3)nc21 [B Glycine] |  |  | 1200 | 6.87 | 
CCn1cc(C(=O)O)c(=O)c2cc(F)c(N3CCNCC3)nc21 [B L-Arginine] |  |  | 6700 | 9.7 | 
CCn1cc(C(=O)O)c(=O)c2cc(F)c(N3CCNCC3)nc21 [B L-Histidine] |  |  | 1100 | 7.53 | 
CCn1cc(C(=O)O)c(=O)c2cc(F)c(N3CCNCC3)nc21 [B L-Lysine] |  |  | 4300 | 9.4 | 
CCn1cc(C(=O)O)c(=O)c2cc(F)c(N3CCNCC3)nc21 [B L-Proline] |  |  | 1100 | 6.92 | 
CCn1cc(C(=O)O)c(=O)c2cc(F)c(N3CCNCC3)nc21 [B Lactobionic] |  |  | 99000 | 3.6 ^b | 
CCn1cc(C(=O)O)c(=O)c2cc(F)c(N3CCNCC3)nc21 [B Maleic] |  |  | 7750 | 2.60 | 
CCn1cc(C(=O)O)c(=O)c2cc(F)c(N3CCNCC3)nc21 [B Oxalic] |  |  | 2800 | 1.76^b | 
CCn1cc(C(=O)O)c(=O)c2cc(F)c(N3CCNCC3)nc21 [B Succinic] |  |  | 75000 | 4.45^b | 
CCn1cc(C(=O)O)c(=O)c2cc(F)c(N3CCNCC3)nc21 [B Tartaric] |  |  | 7700 | 3.46 | 
